For 43 molecules, MIC results are on record in patent publication US10815238B2, “Antimicrobial compounds and methods of making and using the same” (BIOVERSYS AG, priority 2013, dated 2020).

Test [1] has as its system Eschericia coli (E. coli) strain ATCC25922. Kind of test: Standard microdilution assay, MIC against E. coli ATCC25922. It is filed as cell-based. To be noted: Escherichia coli. The essentials:
(§1)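 MIC determined by broth microdilution following CLSI protocols, with reference strains run in parallel for quality control. Activity scored +/− at a cutoff of 16 micrograms/mL.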
In general terms: Broth dilution looks for growth in wells or tubes with falling amounts of substance.

Test [2] relates to Staphylococcus aureus (S. aureus) 11540 strain. Kind of test: Standard microdilution assay, MIC against S. aureus 11540. It is filed as cell-based. To be noted: read-out: MIC S. aureus. In outline:
as §1

Where [3] appears, read: E. coli strain ATCC25922, standard microdilution assay, cutoff 16 micrograms/mL, read-out: MIC E. Coli.
The mark [4] stands for this setting: S. aureus 11540 strain, standard microdilution assay, cutoff 16 micrograms/mL.

Like-named read-outs stand apart in the source and are kept apart here.

Broadly, the MIC is the least concentration at which growth counts as inhibited. In the case of `C=C[C@H](C[C@@H](C)NCc1ccc(-n2cc3cc(-c4cc(CCC[C@H](C)N)cc(OC(F)(F)F)c4F)[nH]c3nc2=O)cc1)NC(=N)N` [Compound 372], the MIC in test [1] (setting [3]) and in test [2] (setting [4]) was < 16 µg/mL in each case.
Regarding `C[C@@H](CN)CN1CC[C@@H](c2cc3cn(-c4ccc(C(=N)NC5CCCC5)cc4)c(=O)nc3[nH]2)C1` [Compound 580], the minimum inhibitory concentration (MIC) in test [1] (setting [3]) and in test [2] (setting [4]) was > 16 µg/mL in each case.
Turning to `C[C@H](N)CCCc1cc(Cl)c(F)c(-c2cc3cn(-c4ccc([C@@H]5CCC[C@@H](CCNC=N)N5)cc4)c(=O)nc3[nH]2)c1` [Compound 515], the MIC in test [1] (setting [3]) and in test [2] (setting [4]) was < 16 µg/mL throughout.
Regarding `C[C@H](N)CCCc1cc(Cl)c(F)c(-c2cc3cn(-c4ccc([C@@H]5CCC[C@@H](CCc6nccs6)N5)cc4)c(=O)nc3[nH]2)c1` [Compound 546], the values for the MIC in test [1] (setting [3]) and in test [2] (setting [4]) were > 16 µg/mL and < 16 µg/mL, respectively.
The like results for `C[C@H](N)CCCc1cc(Cl)c(F)c(-c2cc3cn(-c4ccc([C@@H]5COC[C@@H](CN)N5)cc4)c(=O)nc3[nH]2)c1` [Compound 464] were, in that order, < 16 µg/mL and < 16 µg/mL.
As to `C[C@H](N)CCCc1cc(Cl)c(F)c(-c2cc3cn(-c4ccc(C5=NCCCN5)cc4)c(=O)nc3[nH]2)c1` [Compound 564], the MIC in test [1] (setting [3]) and in test [2] (setting [4]) was < 16 µg/mL each time.
As for `C[C@H](N)CCCc1cc(Cl)c(F)c(-c2cc3cn(-c4ccc([C@H]5CC(CCNC(=N)N)CN5)cc4)c(=O)nc3[nH]2)c1` (some centres unmarked) [Compound 469], the MIC in test [1] (setting [3]) and in test [2] (setting [4]) was < 16 µg/mL each time.
Take `N=C(NC1CC1)c1ccc(-n2cc3cc(-c4ccc(S(=O)(=O)NC5CCNCC5)cc4)[nH]c3nc2=O)cc1` [Compound 502]: the minimal inhibitory concentration (MIC) in test [1] (setting [3]) and in test [2] (setting [4]) was < 16 µg/mL each time.
In the case of `C[C@H](N)CCCc1cc(Cl)c(F)c(-c2cc3cn(-c4ccc([C@@H]5CC(CCNC(=N)N)CN5C(=N)N)cc4)c(=O)nc3[nH]2)c1` (some centres unmarked) [Compound 407], the MIC in test [1] (setting [3]) and in test [2] (setting [4]) was < 16 µg/mL throughout.
Turning to `C[C@H](N)CCCc1cc(Cl)c(F)c(-c2cc3cn(-c4ccc([C@H](N)CCNC(=N)N)cc4)c(=O)nc3[nH]2)c1` [Compound 442], the MIC in test [1] (setting [3]) and in test [2] (setting [4]) was < 16 µg/mL throughout.
`C[C@H](N)CCCc1cc(Cl)c(F)c(-c2cc3cn(-c4ccc([C@@H]5CCC[C@@H](CCNc6nccs6)N5)cc4)c(=O)nc3[nH]2)c1` [Compound 535]: the MIC is > 16 µg/mL in test [1] (setting [3]) and < 16 µg/mL in test [2] (setting [4]).
On the same counts, the results for `N=C(N)NCC[C@H](CN)NCc1ccc(-n2cc3cc(-c4cc(CCC[C@@H](N)CO)cc(Cl)c4F)[nH]c3nc2=O)cc1` [Compound 394] are < 16 µg/mL and < 16 µg/mL.
Regarding `C[C@H](N)CCCc1cc(Cl)c(F)c(-c2cc3cn(-c4ccc([C@H](C)N[C@@H](CCNC(=N)N)C(N)=O)cc4)c(=O)nc3[nH]2)c1` [Compound 363], the MIC in test [1] (setting [3]) and in test [2] (setting [4]) was < 16 µg/mL throughout.
Regarding `C[C@H](NCCCNC(=N)N)c1ccc(-n2cc3cc(-c4cc(CCC[C@@H](N)COP(=O)(O)O)cc(Cl)c4F)[nH]c3nc2=O)cc1` [Compound 487], the MIC in test [1] (setting [3]) and in test [2] (setting [4]) was < 16 µg/mL in each case.
`C[C@H](N)CCCc1cc(Cl)c(F)c(-c2cc3cn(-c4ccc([C@@H]5CCC[C@@H](CCn6ccnn6)N5)cc4)c(=O)nc3[nH]2)c1` [Compound 478]: the MIC in test [1] (setting [3]) and in test [2] (setting [4]) was > 16 µg/mL in each case.
Take `C[C@H](N)CCCc1cc(Cl)c(F)c(-c2cc3cn(-c4ccc([C@@H]5CC(CCN)CN5)cc4)c(=O)nc3[nH]2)c1` (some centres unmarked) [Compound 406]: the MIC in test [1] (setting [3]) and in test [2] (setting [4]) was < 16 µg/mL each time.
For `C[C@@H](CN)CN1CC[C@@H](c2cc3cn(-c4ccc([C@H](C)NCCCNC(=N)N)cc4)c(=O)nc3[nH]2)C1` [Compound 575], the MIC in test [1] (setting [3]) and in test [2] (setting [4]) was < 16 µg/mL each time.
On to `COC[C@H](CCN[C@@H](C)c1ccc(-n2cc3cc(-c4cc(CCC[C@H](C)N)cc(OC(F)(F)F)c4F)[nH]c3nc2=O)cc1)NC(=N)N` [Compound 346], for which the minimum inhibitory concentration (MIC) in test [1] (setting [3]) and in test [2] (setting [4]) was < 16 µg/mL in each case.
For `CC[C@H](N)CCCc1cc(Cl)c(F)c(-c2cc3cn(-c4ccc(CNCC[C@H](CN)NC(=N)N)cc4)c(=O)nc3[nH]2)c1` [Compound 415], the MIC in test [1] (setting [3]) and in test [2] (setting [4]) was < 16 µg/mL throughout.
Turning to `C[C@H](N)CCCc1cc(OC(F)(F)F)c(F)c(-c2cc3cn(-c4ccc([C@H](N)CCN)cc4)c(=O)nc3[nH]2)c1` [Compound 441], the minimum inhibitory concentration (MIC) in test [1] (setting [3]) and in test [2] (setting [4]) was < 16 µg/mL in each case.
Consider `C[C@H](N)CCCc1cc(Cl)c(F)c(-c2cc3cn(-c4ccc([C@@H](N)CCN)cc4)c(=O)nc3[nH]2)c1` [Compound 425], for which the MIC in test [1] (setting [3]) and in test [2] (setting [4]) was < 16 µg/mL throughout.
As for `C[C@H](N)CCCc1cc(OC(F)(F)F)c(F)c(-c2cc3cn(-c4ccc([C@@H](N)CCCN)cc4)c(=O)nc3[nH]2)c1` [Compound 411], the minimal inhibitory concentration (MIC) in test [1] (setting [3]) and in test [2] (setting [4]) was < 16 µg/mL throughout.
For `C[C@@H](CN)CN1CC[C@@H](c2cc3cn(-c4ccc(CNCCCNC(=N)N)cc4)c(=O)nc3[nH]2)C1` [Compound 569], the MIC in test [1] (setting [3]) and in test [2] (setting [4]) was < 16 µg/mL throughout.
Consider `C[C@H](N)CCCc1cc(Cl)c(F)c(-c2cc3cn(-c4ccc(CN[C@H](CCN)CNc5nccs5)cc4)c(=O)nc3[nH]2)c1` [Compound 490], for which the MIC in test [1] (setting [3]) and in test [2] (setting [4]) was < 16 µg/mL in each case.
With `C[C@H](N)CCCc1cc(Cl)c(F)c(-c2cc3cn(-c4ccc([C@@H]5CCC[C@@H](CCn6ccnc6)N5)cc4)c(=O)nc3[nH]2)c1` [Compound 533], the MIC in test [1] (setting [3]) and in test [2] (setting [4]) was < 16 µg/mL each time.
As to `C[C@H](N)CCCc1cc(Cl)c(F)c(-c2cc3cn(-c4ccc(CN[C@H](C)C[C@H](CN)NC(=N)N)cc4)c(=O)nc3[nH]2)c1` [Compound 397], the MIC in test [1] (setting [3]) and in test [2] (setting [4]) was < 16 µg/mL in each case.
Turning to `C[C@H](NCCCNC(=N)N)c1ccc(-n2cc3cc(-c4cc(CCC[C@@H](N)COC(=O)Cc5ccccc5)cc(Cl)c4F)[nH]c3nc2=O)cc1` [Compound 331], the MIC in test [1] (setting [3]) and in test [2] (setting [4]) was < 16 µg/mL each time.
Regarding `C[C@H](N)CCCc1cc(OC(F)(F)F)c(F)c(-c2cc3cn(-c4ccc([C@H](C)NCC[C@@H](CNC(=O)CN)NC(=N)N)cc4)c(=O)nc3[nH]2)c1` [Compound 423], the minimum inhibitory concentration (MIC) in test [1] (setting [3]) and in test [2] (setting [4]) was < 16 µg/mL each time.
For `C[C@H](N)CCCc1cc(OC(F)(F)F)c(F)c(-c2cc3cn(-c4ccc([C@H](N)CCCN)cc4)c(=O)nc3[nH]2)c1` [Compound 455], the MIC in test [1] (setting [3]) and in test [2] (setting [4]) was < 16 µg/mL in each case.
On to `C=C[C@@H](C[C@H](C)NCc1ccc(-n2cc3cc(-c4cc(CCC[C@H](C)N)cc(Cl)c4F)[nH]c3nc2=O)cc1)NC(=N)N` [Compound 336], for which the MIC in test [1] (setting [3]) and in test [2] (setting [4]) was < 16 µg/mL throughout.
For the molecule `C[C@H](N)CCCc1cc(Cl)c(F)c(-c2cc3cn(-c4ccc(C(=N)NC5CC5)cc4)c(=O)nc3[nH]2)c1` [Compound 503], the MIC in test [1] (setting [3]) and in test [2] (setting [4]) was < 16 µg/mL in each case.
For `C[C@H](N)CCCc1cc(Cl)c(F)c(-c2cc3cn(-c4ccc(C(O)CNC(=N)N)cc4)c(=O)nc3[nH]2)c1` (some centres unmarked) [Compound 471], the minimal inhibitory concentration (MIC) in test [1] (setting [3]) and in test [2] (setting [4]) was < 16 µg/mL each time.
In the case of `C[C@H](N)CCCc1cc(Cl)c(F)c(-c2cc3cn(-c4ccc([C@@H](N)CCCN)cc4)c(=O)nc3[nH]2)c1` [Compound 410], the MIC in test [1] (setting [3]) and in test [2] (setting [4]) was < 16 µg/mL each time.
Consider `CC[C@H](NCCCNC(=N)N)c1ccc(-n2cc3cc(-c4cc(CCC[C@@H](N)CO)cc(Cl)c4F)[nH]c3nc2=O)cc1` [Compound 432], for which the minimum inhibitory concentration (MIC) in test [1] (setting [3]) and in test [2] (setting [4]) was < 16 µg/mL in each case.
Turning to `C[C@H](N)CCCc1cc(Cl)c(F)c(-c2cc3cn(-c4ccc(C(=O)NCCCN)cc4)c(=O)nc3[nH]2)c1` [Compound 475], the MIC in test [1] (setting [3]) and in test [2] (setting [4]) was < 16 µg/mL throughout.
Take `C[C@H](N)CCCc1cc(Cl)c(F)c(-c2cc3cn(-c4ccc([C@H]5CCC[C@@H](CCNC(=N)N)N5)cc4)c(=O)nc3[nH]2)c1` [Compound 444]: the MIC in test [1] (setting [3]) and in test [2] (setting [4]) was < 16 µg/mL in each case.
Regarding `C[C@H](NCCCNC(=N)N)c1ccc(-n2cc3cc(-c4cc(CCC[C@@H](N)COP(=O)(Oc5ccccc5)Oc5ccccc5)cc(Cl)c4F)[nH]c3nc2=O)cc1` [Compound 488], the minimum inhibitory concentration (MIC) in test [1] (ATCC25922, read-out: MIC E. Coli) is < 16 µg/mL; in test [2], < 16 µg/mL.
Regarding `C[C@H](N)CCCc1cc(Cl)c(F)c(-c2cc3cn(-c4ccc([C@H](C)NCC[C@@H](/C=C/Cl)NC(=N)N)cc4)c(=O)nc3[nH]2)c1` [Compound 389], the minimal inhibitory concentration (MIC) in test [1] (setting [3]) and in test [2] (setting [4]) was < 16 µg/mL each time.
Take `C[C@H](N)CCCc1cc(OC(F)(F)F)c(F)c(-c2cc3cn(-c4ccc([C@H](C)NCCC(CC5CNC5)NC(=N)N)cc4)c(=O)nc3[nH]2)c1` (some centres unmarked) [Compound 481]: the MIC in test [1] (setting [3]) and in test [2] (setting [4]) was < 16 µg/mL in each case.
Turning to `C[C@H](N)CCCc1cc(Cl)c(F)c(-c2cc3cn(-c4ccc(C(=O)NCCCNC(=N)N)cc4)c(=O)nc3[nH]2)c1` [Compound 459], the minimum inhibitory concentration (MIC) in test [1] (setting [3]) and in test [2] (setting [4]) was < 16 µg/mL in each case.
`C=C[C@H](CCNC(=N)N)N[C@@H](C)c1ccc(-n2cc3cc(-c4cc(CCC[C@H](C)N)cc(OC(F)(F)F)c4F)[nH]c3nc2=O)cc1` [Compound 383]: the MIC in test [1] (setting [3]) and in test [2] (setting [4]) was < 16 µg/mL throughout.
Turning to `COc1ccc(Cn2cc([C@@H]3COC[C@H](c4ccc(-n5cc6cc(-c7cc(CCC[C@H](C)N)cc(Cl)c7F)[nH]c6nc5=O)cc4)N3)nn2)cc1` [Compound 392], the minimum inhibitory concentration (MIC) in test [1] (setting [3]) was > 16 µg/mL; in test [2] (setting [4]) it was < 16 µg/mL.
Turning to `C[C@H](N)CCCc1cc(Cl)c(F)c(-c2cc3cn(-c4ccc([C@@H]5CCC[C@@H](CCn6ncoc6=O)N5)cc4)c(=O)nc3[nH]2)c1` [Compound 545], the minimum inhibitory concentration (MIC) in test [1] (setting [3]) and in test [2] (setting [4]) was > 16 µg/mL in each case.
